{"source": "patent US20250011332A1", "about": "“PYRAZOLO FUSED RING COMPOUND AND USE THEREOF” (SOTER BIOPHARMA PTE. LTD., priority 2021, published 2025)", "key": {"[1]": {"assay": "Pharmacokinetic (PK) test in mice", "format": "in vivo", "conditions": "mouse, plasma, male balb/c mice, intravenous 1 mg/kg, gavage 3 mg/kg", "method": "The clear solution obtained after dissolving the test compound was administered to male mice (balb/c) via tail vein injection and gavage respectively. After administration of the test compound, blood samples were collected from mandibular veins for the intravenous injection group (1 mg/kg) at 0.083, 0.25, 0.5, 1, 2, 4, 8 and 24 h and for the gavage group (3 mg/kg) was at 0.25, 0.5, 1, 2, 4, 6, 8 and 24 h, respectively, and centrifuged to obtain plasma. The LC-MS/MS method was used to determine the blood drug concentration, and the WinNonlin™ Version 6.3 pharmacokinetic software was used to calculate the relevant pharmacokinetic parameters by the non-compartmental model linear logarithmic trapezoidal method."}, "[2]": {"test_system": "IL-23 induced psoriasis-like skin lesions in mice", "assay": "In vivo drug efficacy test in mouse psoriasis model (IL-23 induced auricular epidermal dysplasia)", "set-up": "species or system C57BL/6 mice; Ear comprehensive score: scale not given here", "conditions": "for Ear weight: end of experiment (Day 10), 8 mm punch", "source_text": "Purpose: The purpose of this experiment is to evaluate the preventive and therapeutic effect of the test substance on IL-23 induced psoriasis-like skin lesions in mice through the psoriasis-like skin lesions model induced by intradermal injection of IL-23 into the mouse auricle.\nMethod: After the adaptation period of experimental animals, 50 mice were divided into 5 groups according to the Excel completely random grouping method, with 10 mice in each group, as follows: vehicle (0.5% MC & 0.5% Tween 80) control group, modeling group, compound 1 (10, 20, 50 mg/kg) group. Except for the vehicle control group, the animals in the other groups were intradermally injected with IL-23 (3 μg/10 μL/mouse/day, QD) in their right ears for 8 consecutive days (D1-D8). The animals in the control group were intradermally injected with an equal volume of physiological saline solution (10 μL/mouse/day, QD) in the right ear for 8 consecutive days (D1-D8). For the modeling group, the vehicle and test drug were administered orally at the same time, twice a day (Bid), with an interval of 6 h, for 8 consecutive days (D1-D8). During the dosing period, the animal body weight was monitored every two days. On D1, D3, D5, D7 (all before IL-23 injection), and D9, the thickness of the mouse right ear was measured and the auricle appearance was observed and scored. At the end of the experiment (Day 10), the ear on the side where the model was created was taken, and the ear was punched along the edge of the auricle with an 8 mm punch to obtain a piece of ear which was weighed. The piece of ear from the right ear was fixed with formalin and then subjected to histopathological examination (H&E) staining."}, "[3]": {"conditions": "10 mg/kg oral gavage Bid, day 1"}, "[4]": {"conditions": "10 mg/kg oral gavage Bid, day 3"}, "[5]": {"conditions": "10 mg/kg oral gavage Bid, day 5"}, "[6]": {"conditions": "10 mg/kg oral gavage Bid, day 7"}, "[7]": {"conditions": "10 mg/kg oral gavage Bid, day 9"}, "[8]": {"conditions": "20 mg/kg oral gavage Bid, day 1"}, "[9]": {"conditions": "20 mg/kg oral gavage Bid, day 3"}, "[10]": {"conditions": "20 mg/kg oral gavage Bid, day 5"}, "[11]": {"conditions": "20 mg/kg oral gavage Bid, day 7"}, "[12]": {"conditions": "20 mg/kg oral gavage Bid, day 9"}, "[13]": {"conditions": "50 mg/kg oral gavage Bid, day 1"}, "[14]": {"conditions": "50 mg/kg oral gavage Bid, day 3"}, "[15]": {"conditions": "50 mg/kg oral gavage Bid, day 5"}, "[16]": {"conditions": "50 mg/kg oral gavage Bid, day 7"}, "[17]": {"conditions": "50 mg/kg oral gavage Bid, day 9"}}, "data": [{"smiles": "Cn1cc(-c2cn3nccc3c(-c3cnn([C@]4(CC#N)CC5(C[C@H](C#N)C5)C4)c3)n2)cn1", "note": "(stereo partly drawn) [Compound 1]", "values": [{"measurement": "bioavailability", "setting": "[1]; oral", "result": 88.7, "unit": "%"}, {"measurement": "AUC(0-inf)", "setting": "[1]", "result": 7.67, "unit": "µM·h"}, {"measurement": "clearance", "setting": "[1]; read-out: Cl (clearance rate)", "result": 15.6, "unit": "mL/min/kg"}, {"measurement": "Cmax", "setting": "[1]; read-out: Cmax (peak concentration)", "result": 3.04, "unit": "µM"}, {"measurement": "half-life", "setting": "[1]; read-out: T1/2 (half-life) (converted)", "result": 143, "unit": "min"}, {"measurement": "Vd", "setting": "[1]; read-out: Vd (distribution volume)", "result": 1.59, "unit": "L/kg"}, {"measurement": "Ear comprehensive score", "setting": "[2]; [3]", "result": "0.00 ± 0.00"}, {"measurement": "Ear thickness (mm)", "setting": "[2]; [3]", "result": "0.189 ± 0.006", "unit": "mm"}, {"measurement": "Weight", "setting": "[2]; [3]", "result": "19.77 ± 0.59", "unit": "g"}, {"measurement": "Ear comprehensive score", "setting": "[2]; [4]", "result": "0.00 ± 0.00"}, {"measurement": "Ear thickness (mm)", "setting": "[2]; [4]", "result": "0.287 ± 0.018", "unit": "mm"}, {"measurement": "Weight", "setting": "[2]; [4]", "result": "19.69 ± 0.57", "unit": "g"}, {"measurement": "Ear comprehensive score", "setting": "[2]; [5]", "result": "0.60 ± 0.52"}, {"measurement": "Ear thickness (mm)", "setting": "[2]; [5]", "result": "0.311 ± 0.013", "unit": "mm"}, {"measurement": "Weight", "setting": "[2]; [5]", "result": "20.02 ± 0.77", "unit": "g"}, {"measurement": "Ear comprehensive score", "setting": "[2]; [6]", "result": "1.70 ± 1.06"}, {"measurement": "Ear thickness (mm)", "setting": "[2]; [6]", "result": "0.373 ± 0.030", "unit": "mm"}, {"measurement": "Weight", "setting": "[2]; [6]", "result": "19.69 ± 0.63", "unit": "g"}, {"measurement": "Ear comprehensive score", "setting": "[2]; [7]", "result": "2.60 ± 1.43"}, {"measurement": "Ear thickness (mm)", "setting": "[2]; [7]", "result": "0.430 ± 0.048", "unit": "mm"}, {"measurement": "Weight", "setting": "[2]; [7]", "result": "20.04 ± 0.72", "unit": "g"}, {"measurement": "Ear weight", "setting": "[2]; 10 mg/kg oral gavage Bid", "result": "19.16 ± 1.56", "unit": "mg"}, {"measurement": "Ear comprehensive score", "setting": "[2]; [8]", "result": "0.00 ± 0.00"}, {"measurement": "Ear thickness (mm)", "setting": "[2]; [8]", "result": "0.190 ± 0.009", "unit": "mm"}, {"measurement": "Weight", "setting": "[2]; [8]", "result": "19.77 ± 0.54", "unit": "g"}, {"measurement": "Ear comprehensive score", "setting": "[2]; [9]", "result": "0.00 ± 0.00"}, {"measurement": "Ear thickness (mm)", "setting": "[2]; [9]", "result": "0.289 ± 0.028", "unit": "mm"}, {"measurement": "Weight", "setting": "[2]; [9]", "result": "19.85 ± 0.78", "unit": "g"}, {"measurement": "Ear comprehensive score", "setting": "[2]; [10]", "result": "0.60 ± 0.70"}, {"measurement": "Ear thickness (mm)", "setting": "[2]; [10]", "result": "0.306 ± 0.018", "unit": "mm"}, {"measurement": "Weight", "setting": "[2]; [10]", "result": "20.13 ± 0.78", "unit": "g"}, {"measurement": "Ear comprehensive score", "setting": "[2]; [11]", "result": "1.40 ± 0.52"}, {"measurement": "Ear thickness (mm)", "setting": "[2]; [11]", "result": "0.350 ± 0.025", "unit": "mm"}, {"measurement": "Weight", "setting": "[2]; [11]", "result": "19.80 ± 0.92", "unit": "g"}, {"measurement": "Ear comprehensive score", "setting": "[2]; [12]", "result": "1.50 ± 0.71"}, {"measurement": "Ear thickness (mm)", "setting": "[2]; [12]", "result": "0.381 ± 0.032", "unit": "mm"}, {"measurement": "Weight", "setting": "[2]; [12]", "result": "20.27 ± 0.90", "unit": "g"}, {"measurement": "Ear weight", "setting": "[2]; 20 mg/kg oral gavage Bid", "result": "18.76 ± 1.62", "unit": "mg"}, {"measurement": "Ear comprehensive score", "setting": "[2]; [13]", "result": "0.00 ± 0.00"}, {"measurement": "Ear thickness (mm)", "setting": "[2]; [13]", "result": "0.193 ± 0.006", "unit": "mm"}, {"measurement": "Weight", "setting": "[2]; [13]", "result": "19.78 ± 0.53", "unit": "g"}, {"measurement": "Ear comprehensive score", "setting": "[2]; [14]", "result": "0.00 ± 0.00"}, {"measurement": "Ear thickness (mm)", "setting": "[2]; [14]", "result": "0.279 ± 0.024", "unit": "mm"}, {"measurement": "Weight", "setting": "[2]; [14]", "result": "19.85 ± 0.68", "unit": "g"}, {"measurement": "Ear comprehensive score", "setting": "[2]; [15]", "result": "0.10 ± 0.32"}, {"measurement": "Ear thickness (mm)", "setting": "[2]; [15]", "result": "0.289 ± 0.025", "unit": "mm"}, {"measurement": "Weight", "setting": "[2]; [15]", "result": "20.41 ± 0.70", "unit": "g"}, {"measurement": "Ear comprehensive score", "setting": "[2]; [16]", "result": "1.40 ± 0.70"}, {"measurement": "Ear thickness (mm)", "setting": "[2]; [16]", "result": "0.338 ± 0.023", "unit": "mm"}, {"measurement": "Weight", "setting": "[2]; [16]", "result": "20.15 ± 0.56", "unit": "g"}, {"measurement": "Ear comprehensive score", "setting": "[2]; [17]", "result": "1.00 ± 0.47"}, {"measurement": "Ear thickness (mm)", "setting": "[2]; [17]", "result": "0.352 ± 0.032", "unit": "mm"}, {"measurement": "Weight", "setting": "[2]; [17]", "result": "20.28 ± 0.76", "unit": "g"}, {"measurement": "Ear weight", "setting": "[2]; 50 mg/kg oral gavage Bid", "result": "17.63 ± 1.47", "unit": "mg"}]}]}
